Results taken from patent US20170073337A1, “DIHYDROTHIAZINE AND DIHYDROOXAZINE DERIVATIVES HAVING BACE1 INHIBITORY ACTIVITY” (Shionogi & Co., Ltd., priority 2014, published 2017).
Converted amounts (≈) assume the structure as drawn. Like-named read-outs stand apart in the source and are kept apart here.

Experiments:
CYP1A2 = biological target: T1, CYP1A2 (Homo sapiens, UniProt P05177); test: CYP inhibition test (CYP1A2); type: in vitro ADME; settings: pooled human liver microsomes; 7-ethoxyresorufin O-deethylation
T1 construct: The commercially available pooled human liver microsomes are used as an enzyme resource; from tissue; host or cells: pooled human liver microsomes
T1 sequence (P05177 1-516): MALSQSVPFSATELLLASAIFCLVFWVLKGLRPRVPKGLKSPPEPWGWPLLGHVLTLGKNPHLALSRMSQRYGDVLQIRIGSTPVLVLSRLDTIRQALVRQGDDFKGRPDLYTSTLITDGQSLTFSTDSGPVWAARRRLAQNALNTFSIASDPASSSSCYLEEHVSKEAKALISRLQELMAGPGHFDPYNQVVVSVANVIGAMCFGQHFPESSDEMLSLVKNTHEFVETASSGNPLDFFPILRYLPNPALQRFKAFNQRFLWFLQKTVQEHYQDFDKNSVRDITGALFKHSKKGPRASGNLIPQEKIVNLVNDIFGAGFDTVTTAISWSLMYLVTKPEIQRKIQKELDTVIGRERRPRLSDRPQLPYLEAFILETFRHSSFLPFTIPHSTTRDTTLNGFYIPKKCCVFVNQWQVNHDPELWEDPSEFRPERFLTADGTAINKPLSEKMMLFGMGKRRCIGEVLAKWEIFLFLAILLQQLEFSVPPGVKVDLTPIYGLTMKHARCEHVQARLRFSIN
Text: (§1) The CYP inhibition test is a test to assess the inhibitory effect of a compound of the present invention towards typical substrate metabolism reactions on CYP enzymes in human liver microsomes. The marker reactions on human main five CYP enzymes (CYP1A2, 2C9, 2C19, 2D6, and 3A4) are used as follows: 7-ethoxyresorufin O-deethylation (CYP1A2), tolbutamide methyl-hydroxylation (CYP2C9), mephenytoin 4′-hydroxylation (CYP2C19), dextromethorphan O-demethylation (CYP2D6), and terfenadine hydroxylation (CYP3A4). The commercially available pooled human liver microsomes are used as an enzyme resource.
(§2) The reaction conditions were as follows: substrate, 0.5 μmol/L ethoxyresorufin (CYP1A2), 100 μmol/L tolbutamide (CYP2C9), 50 μmol/L, S-mephenytoin (CYP2C19), 5 μmol/L dextromethorphan (CYP2D6), 1 μmol/L terfenadine (CYP3A4): reaction time, 15 minutes: reaction temperature, 37° C.; enzyme, pooled human liver microsomes 0.2 mg protein/mL; concentrations of the compound of the present invention, 1, 5, 10, 20 μmol/L (four points).
(§3) Five kinds of substrates, human liver microsomes, and a compound solution of the present invention in […] Hepes buffer were added to a 96-well plate at the composition as described above as a reaction solution. NADPH as a cofactor was added to this 96-well plate in order to initiate metabolism reactions. After the incubation at 37° C.for […], a methanol/acetonitrile=1/1 (v/v) solution was added to stop the reaction. After the centrifugation at 3000 rpm for 15 minutes, resorufin (CYP1A2 metabolite) in the supernatant was quantified by a fluorescent plate reader, and hydroxytolbutamide (CYP2C9 metabolite), 4′-hydroxymephenytoin (CYP2C19 metabolite), dextrorphan (CYP2D6 metabolite), and terfenadine alcohol metabolite (CYP3A4 metabolite) in the supernatant were quantified by LC/MS/MS.
(§4) The sample adding DMSO to a reaction system instead of compound of the present invention solution was adopted as a control (100%) because DMSO was used as a solvent to dissolve a compound of the present invention. Remaining activity (%) was calculated at each concentration of a compound of the present invention, and IC50 value was calculated by reverse presumption by a logistic model using a concentration and an inhibition rate.

CYP2C19 = biological target: T2, CYP2C19 (Homo sapiens, UniProt P33261); test: CYP inhibition test (CYP2C19); type: in vitro ADME; settings: pooled human liver microsomes; mephenytoin 4′-hydroxylation
T2 construct: The commercially available pooled human liver microsomes are used as an enzyme resource; from tissue; host or cells: pooled human liver microsomes
T2 sequence (P33261 whole entry): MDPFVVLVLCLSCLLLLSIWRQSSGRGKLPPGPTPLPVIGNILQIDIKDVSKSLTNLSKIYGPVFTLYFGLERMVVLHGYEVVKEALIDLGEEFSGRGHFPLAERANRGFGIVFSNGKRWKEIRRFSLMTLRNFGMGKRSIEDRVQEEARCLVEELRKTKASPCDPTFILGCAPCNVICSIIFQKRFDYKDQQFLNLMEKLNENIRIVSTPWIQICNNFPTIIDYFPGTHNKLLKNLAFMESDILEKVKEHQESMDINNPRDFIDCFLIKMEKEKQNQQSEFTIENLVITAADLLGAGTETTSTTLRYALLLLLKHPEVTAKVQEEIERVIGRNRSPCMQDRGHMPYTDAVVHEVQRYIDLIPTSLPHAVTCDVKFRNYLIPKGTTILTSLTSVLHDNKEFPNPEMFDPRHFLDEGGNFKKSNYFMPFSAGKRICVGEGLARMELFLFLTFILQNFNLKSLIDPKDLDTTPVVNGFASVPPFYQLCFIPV
Text: as §1, §2, §3, §4

Metabolic stability test = type: in vitro ADME; settings: human liver microsomes, 37° C., 30 minutes, NADPH
Experimental: Using a commercially available pooled human liver microsomes, a compound of the present invention was reacted for a constant time, a remaining rate was calculated by comparing a reacted sample and an unreacted sample, thereby, a degree of metabolism in liver was assessed.
A reaction was performed (oxidative reaction) at 37° C. for 0 minute or 30 minutes in the presence of 1 mmol/L NADPH in 0.2 mL of a buffer (60 mmol/L Tris-HCl pH 7.4, 150 mmol/L potassium chloride, 10 mmol/L magnesium chloride) containing 0.5 mg protein/mL of human liver microsomes. After the reaction, 50 μL of the reaction solution was added to 100 μL of a methanol/acetonltrile=1/1 (v/v), mixed and centrifuged at 3000 rpm for 15 minutes. The compound of the present invention in the supernatant was quantified by LC/MS/MS or solid phase extraction (SPE)/MS, and a remaining amount of the compound of the present invention after the reaction area calculated, letting a compound amount at 0 minute reaction time to be 100%.

CYP3A4 = biological target: T3, CYP3A4 (Homo sapiens, UniProt P08684); test: CYP inhibition test (CYP3A4); type: in vitro ADME; settings: pooled human liver microsomes; terfenadine hydroxylation
T3 construct: The commercially available pooled human liver microsomes are used as an enzyme resource; from tissue; host or cells: pooled human liver microsomes
T3 sequence (P08684 whole entry): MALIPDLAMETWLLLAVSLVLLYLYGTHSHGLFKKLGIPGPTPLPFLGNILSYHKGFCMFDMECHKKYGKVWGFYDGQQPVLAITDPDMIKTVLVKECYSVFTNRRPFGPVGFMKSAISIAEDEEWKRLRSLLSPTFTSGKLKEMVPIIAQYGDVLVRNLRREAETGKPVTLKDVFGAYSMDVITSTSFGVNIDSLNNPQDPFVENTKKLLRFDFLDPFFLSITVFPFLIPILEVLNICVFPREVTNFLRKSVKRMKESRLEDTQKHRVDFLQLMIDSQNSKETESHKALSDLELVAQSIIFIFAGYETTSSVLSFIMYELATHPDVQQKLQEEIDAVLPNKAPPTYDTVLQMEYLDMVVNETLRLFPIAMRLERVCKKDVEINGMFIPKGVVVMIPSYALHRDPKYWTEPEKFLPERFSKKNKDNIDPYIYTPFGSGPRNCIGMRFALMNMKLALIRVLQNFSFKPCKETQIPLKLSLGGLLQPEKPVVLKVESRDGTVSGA
Text: as §1, §2, §3, §4

[1] = tested on: Aβ production in neuroblastoma SH-SY5Y cells (SH/APPwt); test: β-amyloid (Aβ) production inhibitory effect in cell: 384-well; type: cell-based; settings: Homo sapiens, Assay format 384-well
Experimental: Neuroblastoma SH-SY5Y cells (SH/APPwt) with human wild-type β-APT excessively expressed therein were prepared at 4×10^5 cells/mL, and 50 μl portions thereof were inoculated into each well of a 384-well culture plate (Corning) added 0.5 μl of the test compound of the present invention (DMSO solution). The final DMSO concentration was 1%, and the amount of the cell culture was 50 μl. After the incubation was performed for 21 hours from the cell seeding, 5 μl of the culture supernatant was collected from each fraction. The amount of the Aβ in each fraction was measured.
The Aβ amount was measured as follows. 5 μl of a homogeneous time resolved fluoresrenee (HTRF) measurement reagent (Amyloid β1-40 peptide; CIS bio international) and 5 μl of the culture supernatant were put into a 384′well plate (a black plate: Corning) and mixed with each other, and then left standing overnight at 4° C. while the light was shielded. Then, the fluorescence intensity (620 nm and 665 nm) was measured with EnViston (Perkin Elmer life sciences).

Recombinant human BACE1 = biological target: T4, Recombinant human BACE1 (Homo sapiens, UniProt P56817); test: Assay of BACE1 inhibitory activity: 384-well; type: biochemical; settings: Assay format 384-well
T4 construct: purchased R&D Systems
T4 sequence (P56817 46-501): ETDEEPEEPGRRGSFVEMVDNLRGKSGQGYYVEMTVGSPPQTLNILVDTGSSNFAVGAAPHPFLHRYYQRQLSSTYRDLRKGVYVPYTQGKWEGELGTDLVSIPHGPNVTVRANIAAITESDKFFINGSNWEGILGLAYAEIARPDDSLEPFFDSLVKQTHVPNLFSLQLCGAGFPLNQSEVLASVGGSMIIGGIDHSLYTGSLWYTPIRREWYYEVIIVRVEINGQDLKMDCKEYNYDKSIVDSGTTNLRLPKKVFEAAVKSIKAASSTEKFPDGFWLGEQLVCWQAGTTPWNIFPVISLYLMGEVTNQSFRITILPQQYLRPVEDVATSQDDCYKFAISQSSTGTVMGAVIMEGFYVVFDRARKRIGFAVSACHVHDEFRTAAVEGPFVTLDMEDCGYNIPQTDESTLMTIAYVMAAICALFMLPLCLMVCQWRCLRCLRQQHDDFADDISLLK
Experimental: 5 μL of substrate peptide solution (Biotin-XSEVNLDAEFRHDSGC-Eu: X=ε-amino-n-capronic acid, Eu=Europium eryplate) was added to each well of 384-well plate (a black plate: Corning), and after addition of 0.1 μl of the compound of the present invention (DMSO solution) and 5 μl of Recombinant human BACE1 (R&D Systems), the reaction mixture was incubated at 25° C. for 2 hours. The substrate peptide was synthesized by reacting Cryptate TBPCOOH mono SMP (CIS bio international) with Biotin-XSEVNLDAEFRHDSGC (Peptide Institute, Inc.).
After the incubation for reaction, 10 μl of 8.0 μg/ml Streptavidin-XL665 (CIS bio International) dissolved in phosphate buffer (150 mmol/L K2HPO4-KH2PO4, pH 7.0, 0.008% Triton X-100, 0.8 mol/L KF) was added to each well and left stand at 25° C. for 30 minutes.

Solubility test = type: physicochemical; settings: for solubility kinetic at 1 h: kinetic from dmso stock; for solubility kinetic at 16 h: solubility in JP 2nd fluid B, 1% DMSO, *2: shaken for 1 hour at room temperature
Experimental: A 10 mmol/L solution of the compound was prepared with DMSO, and 2 μL of the compound of the present invention solution was added, respectively, to 198 μL of JP 1st fluid (water was added to 2.0 g of sodium chloride and 7.0 ml, of hydrochloric acid to reach 1000 mL) and JP 2nd fluid (See Table 4). The mixture was left standing for 16 hours at 25° C. or shaken for 1 hour at ruom temperature, and the mixture was vacuum-filtered. The […] was ten or one hundred-fold diluted with metbanol/water=1/1 (v/v) or MeCN/MeOH/H2O(=1/1/2), and the compound concent ration in the filtrate was measured with LC/MS or solid phase extraction (SPE)/MS by the absolute calibration method.

CYP2C9 = biological target: T5, CYP2C9 (Homo sapiens, UniProt P11712); test: CYP inhibition test (CYP2C9); type: in vitro ADME; settings: pooled human liver microsomes; tolbutamide methyl-hydroxylation
T5 construct: The commercially available pooled human liver microsomes are used as an enzyme resource; from tissue; host or cells: pooled human liver microsomes
T5 sequence (P11712 whole entry): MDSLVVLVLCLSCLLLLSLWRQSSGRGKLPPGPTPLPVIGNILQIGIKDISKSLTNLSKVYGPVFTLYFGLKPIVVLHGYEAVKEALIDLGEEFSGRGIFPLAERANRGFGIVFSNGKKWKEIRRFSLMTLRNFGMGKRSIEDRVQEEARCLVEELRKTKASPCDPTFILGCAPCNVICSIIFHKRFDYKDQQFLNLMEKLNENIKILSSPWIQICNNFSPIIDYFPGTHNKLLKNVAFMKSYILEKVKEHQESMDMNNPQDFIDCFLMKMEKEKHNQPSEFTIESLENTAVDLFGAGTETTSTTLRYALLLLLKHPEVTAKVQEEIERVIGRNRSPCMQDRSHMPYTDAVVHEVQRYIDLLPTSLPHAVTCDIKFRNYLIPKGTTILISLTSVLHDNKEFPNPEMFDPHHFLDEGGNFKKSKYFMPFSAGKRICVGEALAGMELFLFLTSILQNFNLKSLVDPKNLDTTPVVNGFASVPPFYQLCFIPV
Text: as §1, §2, §3, §4

[2] = biological target: T6, human ether-a-go-go related gene (hERG) channel (Homo sapiens, UniProt Q12809); test: hERG test; type: cell-based; settings: % inhibition of IKr tail peak current at 3 uM; CHO cells expressing hERG
T6 construct: expressed in transfected cells; host or cells: CHO cells
T6 sequence (Q12809 whole entry): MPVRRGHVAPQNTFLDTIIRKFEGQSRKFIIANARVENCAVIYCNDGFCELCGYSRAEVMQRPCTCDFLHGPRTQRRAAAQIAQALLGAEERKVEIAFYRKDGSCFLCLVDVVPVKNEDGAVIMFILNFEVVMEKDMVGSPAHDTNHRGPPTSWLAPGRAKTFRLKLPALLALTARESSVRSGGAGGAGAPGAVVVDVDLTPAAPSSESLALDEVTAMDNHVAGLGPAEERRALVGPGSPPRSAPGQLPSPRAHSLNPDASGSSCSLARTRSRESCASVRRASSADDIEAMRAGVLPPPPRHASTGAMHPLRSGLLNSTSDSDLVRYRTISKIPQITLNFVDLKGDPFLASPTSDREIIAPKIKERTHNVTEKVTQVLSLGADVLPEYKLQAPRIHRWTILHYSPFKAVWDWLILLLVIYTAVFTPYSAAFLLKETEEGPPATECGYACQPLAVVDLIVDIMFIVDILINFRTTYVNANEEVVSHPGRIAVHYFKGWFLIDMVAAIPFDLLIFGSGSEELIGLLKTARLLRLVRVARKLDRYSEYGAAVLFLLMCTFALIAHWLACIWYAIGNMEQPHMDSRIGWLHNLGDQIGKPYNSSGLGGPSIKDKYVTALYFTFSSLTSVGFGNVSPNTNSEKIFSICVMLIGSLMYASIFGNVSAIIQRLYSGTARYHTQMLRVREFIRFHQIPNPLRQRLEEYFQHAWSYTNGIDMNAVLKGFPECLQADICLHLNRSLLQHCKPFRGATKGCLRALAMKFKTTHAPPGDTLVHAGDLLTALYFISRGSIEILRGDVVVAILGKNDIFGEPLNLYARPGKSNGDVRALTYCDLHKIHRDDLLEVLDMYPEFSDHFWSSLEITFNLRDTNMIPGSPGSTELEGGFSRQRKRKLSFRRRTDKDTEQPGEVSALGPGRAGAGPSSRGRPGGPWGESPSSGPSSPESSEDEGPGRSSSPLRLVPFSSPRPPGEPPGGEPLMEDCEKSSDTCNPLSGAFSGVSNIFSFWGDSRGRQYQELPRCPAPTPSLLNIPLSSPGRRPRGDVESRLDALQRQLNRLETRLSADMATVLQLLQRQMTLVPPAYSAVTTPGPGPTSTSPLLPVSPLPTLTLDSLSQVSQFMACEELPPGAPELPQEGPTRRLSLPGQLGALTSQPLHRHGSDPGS
Text: For the purpose of assessing risk of an electrocardiogram QT interval prolongation, effects on delayed rectifier K+ current (IKr), which plays an important role in the ventricular repolarization process of the compound of the present invention, was studied using CHO cells expressing human ether-a-go-go related gene (hERG) channel.
A cell was retained at a membrane potential of […] by whole cell patch clamp method using an automated patch clamp system (QPatch:Sophion Bioscience A/S). After application of leak potential at −50 mV, IKr induced by depolarization pulse stimulation at +20 mV for 2 seconds and, further, repolarization pulse stimulation at −50 mV for 2 seconds was recorded.

[3] = JP 1st fluid, pH 1.2, simulated gastric fluid, read-out: JP1
[4] = JP 2nd fluid B, pH 6.8, aqueous buffer, read-out: JP2_μM

| IC50 (CYP1A2) | IC50 (CYP2C19) | remaining % (Metabolic stability test) | IC50 (CYP3A4) | IC50 [1] | IC50 (Recombinant human BACE1) | solubility kinetic at 1 h (Solubility test; [3]) | solubility kinetic at 1 h (Solubility test; [4]) | IC50 (CYP2C9) | solubility kinetic at 16 h (Solubility test; read-out: JP2_μM) | SMILES | hERG_3 uM_% [2] |
| --- | --- | --- | --- | --- | --- | --- | --- | --- | --- | --- | --- |
| ≥ 20000 nM | ≥ 20000 nM | 64.9% | ≥ 20000 nM | 0.97 nM | 10.3 nM | 48.4 µM (≈ 19.9 µg/mL) | > 50 µM |  |  | [2H]C([2H])([2H])Oc1cnc(C(=O)Nc2ccc(F)c([C@@]3(C)N=C(N)S[C@H](C)[C@@H]3F)c2)cn1 [Compound I-111] |  |
| ≥ 20000 nM | ≥ 20000 nM |  | ≥ 10000 nM | 0.53 nM |  | > 50 µM |  | ≥ 20000 nM | >50 µM | C[C@]1(c2cc(NC(=O)c3cnc(OCF)cn3)ccc2F)N=C(N)SCC12CC(F)(F)C2 [Compound I-56] | 37.6% |
| ≥ 20000 nM | ≥ 20000 nM | 81% | ≥ 20000 nM | 1 nM | 8.27 nM | > 50 µM |  |  | >50 µM | COC[C@H]1SC(N)=N[C@](C)(c2cc(NC(=O)c3ccc(C#N)cn3)ccc2F)[C@H]1F [Compound I-92] |  |
|  |  |  |  | 3.5 nM |  |  |  |  |  | C[C@]1(c2cc(NC(=O)c3cnc(OCF)cn3)ccc2F)N=C(N)O[C@H](C2(F)CC2)[C@@H]1F [Compound I-94] |  |
|  |  | 77.6% | ≥ 10000 nM | 0.42 nM | 9.24 nM | > 50 µM |  |  | >50 µM | CC[C@H]1SC(N)=N[C@](C)(c2cc(NC(=O)c3ccc(C#N)cn3)ccc2F)[C@H]1F [Compound I-69] |  |
| ≥ 20000 nM | ≥ 20000 nM | 71.5% | ≥ 10000 nM | 1.3 nM | 15.4 nM | > 50 µM |  | ≥ 20000 nM | >50 µM | C[C@]1(c2cc(NC(=O)c3ccc(F)cn3)ccc2F)N=C(N)SCC12CC(F)(F)C2 [Compound I-61] |  |
| ≥ 20000 nM | ≥ 20000 nM | 82.2% |  | 28 nM | 44.5 nM | > 50 µM | 6.1 µM (≈ 2.85 µg/mL) |  |  | COc1ccc(C(=O)Nc2ccc(F)c([C@@]3(C)N=C(N)O[C@H](C(F)(F)C4CC4)[C@@H]3F)c2)nc1 [Compound I-93] |  |
| ≥ 20000 nM | ≥ 20000 nM |  | ≥ 20000 nM | 2.5 nM | 10.5 nM | > 50 µM |  |  | >50.0 µM | COc1cnc(C(=O)Nc2ccc(F)c([C@@]3(C)N=C(N)O[C@H](C4(F)CC4)[C@@H]3F)c2)cn1 [Compound I-97] |  |
| ≥ 20000 nM | ≥ 20000 nM | 60.2% | ≥ 20000 nM | 13 nM | 26 nM | > 50 µM |  |  | >50.0 µM | COc1ccc(C(=O)Nc2ccc(F)c([C@@]3(C)N=C(N)O[C@H](C4(F)CC4)[C@@H]3F)c2)nc1 [Compound I-100] |  |
| ≥ 20000 nM | ≥ 20000 nM |  | ≥ 10000 nM | 0.41 nM | 11.6 nM | > 50 µM | 9.1 µM (≈ 3.91 µg/mL) |  |  | CC[C@H]1SC(N)=N[C@](C)(c2cc(NC(=O)c3ncc(C#N)cc3C)ccc2F)[C@H]1F [Compound I-68] |  |
| ≥ 20000 nM | ≥ 20000 nM |  |  | 2.3 nM | 12.9 nM | > 50 µM | 49.4 µM (≈ 20.8 µg/mL) |  |  | CCOc1cnc(C(=O)Nc2ccc(F)c([C@@]3(C)N=C(N)S[C@H](C)[C@@H]3F)c2)cn1 [Compound I-84] | 28.8% |
